For 5 compounds, ED50, ED25 and IC50 results are on record in patent US5183924A, “Derivatives of benzocycloalkenyldihydroxyalkanoic acids, processes of preparation and medications containing them” (Lipha, Lyonnaise Industrielle Pharmaceutique, priority 1989, dated 1993).

Assay [1] deals with hepatic 14C-cholesterogenesis. In words: Test A: hepatic 14C-cholesterogenesis, in vivo, in the rat. The source says: Test A: Measurement of hepatic ^14 C-cholesterogenesis, in vivo, in the rat according to the method described by Bucher et al., J Biol. Chem., 222, 1-15, 1956 and Alberts et al., Proc. Natl. Acad. Sci. USA, 77 (7), 3957-3961, 1980.
For assay [2], the system named is total cholesterolaemia. Nature of the assay: Test B: total cholesterolaemia, in vivo, in the rat treated intravenously with triton WR 1339. The settings on record: iv.
Assay [3] has as its target T1, TXA2 receptors (Cavia porcellus, UniProt A0A286Y4I8).
T1 construct: platelet-rich plasmas (PRP) are prepared by aortic punction of anaesthetized animals; endogenous in cells; host or cells: guinea pig platelets in platelet-rich plasma
T1 sequence (A0A286Y4I8 1-347): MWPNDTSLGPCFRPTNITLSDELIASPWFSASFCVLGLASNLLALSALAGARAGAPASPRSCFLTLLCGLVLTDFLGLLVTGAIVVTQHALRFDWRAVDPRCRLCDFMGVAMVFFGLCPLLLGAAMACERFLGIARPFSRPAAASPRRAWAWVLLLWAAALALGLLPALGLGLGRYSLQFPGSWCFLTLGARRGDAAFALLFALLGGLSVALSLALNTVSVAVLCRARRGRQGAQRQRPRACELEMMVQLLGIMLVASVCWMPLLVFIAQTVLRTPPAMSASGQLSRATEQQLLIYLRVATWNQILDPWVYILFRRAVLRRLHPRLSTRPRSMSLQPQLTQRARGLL
Nature of the assay: Test C: platelet aggregation induced by an agonist of TXA2 receptors (U 46619), in vitro, platelet-rich plasma. In kind it is cell-based. Conditions: guinea pig platelet-rich plasma, U 46619 20 nM, 37° C. As for the experimental part: Test C: Measurement of platelet aggregation induced by an agonist of TXA2 receptors, in the guinea pig in the following manner: platelet-rich plasmas (PRP) are prepared by aortic punction of anaesthetized animals; the blood (9 vol.) is collected onto a 106 mM solution of trisodium citrate (1 vol.) to prevent coagulation. The PRPs are isolated by slow centrifuging (10 min, 380 g), and left to incubate for at least 3 min (37° C., with slow stirring) in an aggregometer of the Chronolog-400 type. The platelet aggregation is induced by addition of a direct agonist of the TXA2 receptors, such as, for example, the compound known by the code name U 46619 (at a concentration of 20 nM) according to Malmstein, Life Sci., 18, 169-178, 1976; the compounds of the invention are tested "in vitro".

Each structure is given as a SMILES string.

In turn, `CCOC(=O)C[C@H](O)C[C@H](O)/C=C/C1=C(c2ccc(F)cc2)c2ccccc2OC12CCCC2` (relative stereo) [Compound No. 1, (+,-)Ethyl 6E-erythro-7-(4-(4-fluorophenyl)-3-spiro(2,1'-cyclopentyl-2H-1-benzopyran))-3,5-dihydroxyhepten-6-oate] gave an ED50 in assay [1] of 0.17 mg/kg. This compound also returned an ED25 in assay [2] of 29 mg/kg. The compound further came in with an IC50 in assay [3] of 91 µM.
Consider `COC(=O)C[C@H](O)C[C@H](O)/C=C/C1=C(c2ccccc2)c2ccccc2CC1(C)C` (relative stereo) [Compound No. 2, (+,-)Methyl 6E-erythro-7-(1,2-dihydro-2,2-dimethyl-4-phenyl-3-naphthyl)-3,5-dihydroxyhept-6-enoate], for which the ED50 in assay [1] was determined as 0.6 mg/kg. Also, in assay [2], the ED25 came out at 100 mg/kg.
Consider `CCOC(=O)C[C@H](O)C[C@H](O)/C=C/C1=C(c2ccc(Cl)cc2)c2ccccc2OC12CCCC2` (relative stereo) [Compound No. 19, (+,-)Ethyl 6E-erythro-7-(4-(4-chlorophenyl)-3-spiro(2,1'-cyclopentyl-2H-1-benzopyran))-3,5-dihydroxyhept-6-enoate], for which, in assay [1], the ED50 amounted to 0.09 mg/kg. The compound further gave an ED25 in assay [2] of 110 mg/kg. The half-maximal inhibitory concentration (IC50) in assay [3] is 28 µM.
The compound `O=C(O)C[C@H](O)C[C@H](O)/C=C/C1=C(c2ccccc2)c2ccccc2SC12CCCC2` (relative stereo) [Compound No. 65, (+,-)Sodium 6E-erythro-3,5-dihydroxy-7-(4-phenyl-3-spiro(2,1'-cyclopentyl-2H-1-benzothiapyran))hept-6-enoate] returned an ED50 in assay [1] of 0.38 mg/kg. In assay [2], this compound returned an ED25 of 74 mg/kg.
In the same order, the values of `CC[C@H](C)C(=O)O[C@H]1C[C@@H](C)C=C2C=C[C@H](C)[C@H](CC[C@@H]3C[C@@H](O)CC(=O)O3)[C@H]21` [Lovastatine, reference compound] are 0.39 mg/kg and 130 mg/kg.

In general, ED50 refers to the dose that gives a 50% effect, or the effect in half of the subjects. A higher ED50 goes with a need for a large dose. Broadly, the IC50 is the midpoint of a concentration-inhibition curve. Read a high IC50 as a need for much substance.
